Kd and IC50 data for eight molecules are collected here from patent US20250332300A1 (priority 2024, published 2025).

Molecules are shown by their SMILES. Structures can show the parent of a compound that is named as a salt. Where two headings read alike, the source gives them in different places. Starred links: 1 amine or outer side, 2 acyl side, 3 side chain; linkers in the order of their positions; H or OH if unused. Positions of bridges follow the written chain, without caps; N, C: chain ends. Non-standard residues stand in square brackets, D forms with d. Residues, ends and D or L forms follow the SMILES beside them. Groups on a side chain read outwards from the residue. *: point of attachment. DOTA = O=C(O)CN1CCN(CC(=O)O)CCN(CC(=O)*)CCN(CC(=O)O)CC1; Trp(5-OH) = N[C@@H](Cc1c[nH]c2ccc(O)cc12)C(=O)O; Piperazinyl(4-CH2COOH) = O=C(O)CN1CCN(*)CC1; NMePhe(4-F) = CN[C@@H](Cc1ccc(F)cc1)C(=O)O; NMehPhe = CN[C@@H](CCc1ccccc1)C(=O)O; X3 = NC[C@H](CCC(=O)[*:2])C(=O)[*:1]; Aad = N[C@@H](CCCC(=O)O)C(=O)O; Gly(cPr) = N[C@H](C(=O)O)C1CC1; Aoc(2) = CCCCCC[C@H](N)C(=O)O; Ahp(2) = CCCCC[C@H](N)C(=O)O; NMeK = CN[C@@H](CCCCN)C(=O)O; NMeDap = CN[C@@H](CN)C(=O)O; NMeC = CN[C@@H](CS)C(=O)O; NMeS = CN[C@@H](CO)C(=O)O; CO = O=C([*:1])[*:2]

What all share (format): binding
For experiment [1], the target named is T1, human HER2 (23-652) (Homo sapiens, UniProt P04626). The experiment in a line: Surface plasmon resonance (SPR) for assessment of peptide affinity, human HER2. Also noted: towards human HER2 (23-652) and mouse HER2 (23-653); made in house. The method, boiled down:
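Binding kinetics fitted from sensorgrams with 280 s peptide association then 3000 s dissociation (30 uL/min), using HER2 (23-652) either directly immobilized (SA/CM5) or anti-Fc-captured; 3 M magnesium chloride used for regeneration.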
(In general: Surface plasmon resonance follows binding to a sensor surface in real time, without labels.)

Experiment [2] concerns the target T1, human HER2 (23-652). In words: TR-FRET competition assay for peptide potency, human HER2. Set-up: towards human HER2 (23-652) and mouse HER2 (23-653); made in house; host or cells: mammalian cells. For orientation: TR-FRET usually uses a lanthanide donor and a delayed reading to cut background.
For experiment [3], the target named is T2, mouse HER2 (23-653) (Mus musculus, UniProt P70424). The experiment in a line: TR-FRET competition assay for peptide potency, mouse HER2. Also noted: mouse HER2 (23-653) using a Cy5 labeled peptide as a probe; made in house; host or cells: mammalian cells.
The target of experiment [4] is T2, mouse HER2 (23-653). The experiment in a line: Surface plasmon resonance (SPR) for assessment of peptide affinity, mouse HER2. Also noted: mouse HER2 (23-653) using a Cy5 labeled peptide as a probe; made in house. An excerpt:
Each protein was immobilized either onto a SA sensorchip (Cytiva, BR-1005-31) or CM5 sensorchip (Cytiva, BR-1005-30) to a density of 800-2000 RU.

Where [5] appears, read: huHER2 TR-FRET IC50, TR-FRET competition with Cy5 labeled peptide probe, 0.1 nM human HER2, 24 h incubation.
[6] abbreviates: SPR, human HER2 extracellular domain, 25° C., 1:1 binding model, read-out: huHER2-SPR-ONC KD.
The mark [7] stands for this setting: TR-FRET competition with Cy5 labeled peptide probe, 0.1 nM mouse HER2, 24 h incubation, read-out: moHER2 TR-FRET IC50.
[8] abbreviates: SPR, mouse HER2 extracellular domain, 25° C., 1:1 binding model, read-out: moHER2-SPR-ONC KD.
[9] abbreviates: value in parentheses (**): recalculated after further repetition, read-out: huHER2 TR-FRET IC50, recalculated value achieved after further repetition.
Setting [10] is: value in parentheses (**): recalculated after further repetition, read-out: moHER2 TR-FRET IC50, recalculated value achieved after further repetition.

As to `CN1C(=O)[C@H](CO)NC(=O)[C@H](Cc2ccc(O)cc2)NC(=O)[C@H](CN)CCC(=O)NC[C@@H](C(=O)N(C)[C@@H](Cc2ccc(F)cc2)C(N)=O)N(C)C(=O)[C@H](C2CC2)NC(=O)[C@H](Cc2c[nH]c3ccccc23)NC(=O)[C@H](Cc2c[nH]c3ccc(O)cc23)NC(=O)[C@H](CO)N(C)C(=O)[C@@H]1CCc1ccccc1` [Example A39, (3S,6S,9S,12S,15S,18S,21S,24S,27S)-9-((1H-indol-3-yl)methyl)-N-((S)-1-amino-3-(4-fluorophenyl)-1-oxopropan-2-yl)-27-(aminomethyl)-6-cyclopropyl-12-((5-hydroxy-1H-indol-3-yl)methyl)-24-(4-hydroxybenzyl)-15,21-bis(hydroxymethyl)-N,4,16,19-tetramethyl-5,8,11,14,17,20,23,26,30-nonaoxo-18-phenethyl-1,4,7,10,13,16,19,22,25-nonaazacyclotriacontane-3-carboxamide TFA salt] (YS[NMehPhe][NMeS][Trp(5-OH)]W[Gly(cPr)][NMeDap][NMePhe(4-F)]-NH2; linker N-8 via X3), the values for the Kd in experiment [1] and in experiment [4] were 148 nM and 162 nM, respectively. For the same molecule, the IC50 turned out to be 129 nM in experiment [2] (setting [5]) and 436 nM in experiment [3] (moHER2 TR-FRET IC50, TR-FRET competition with Cy5 labeled peptide probe, 0.1 nM mouse HER2, 24 h incubation).

As for `CCCCC[C@@H]1NC(=O)[C@H](Cc2c[nH]c3ccc(O)cc23)NC(=O)[C@H](CCCCNC(C)=O)N(C)C(=O)[C@H](CCc2ccccc2)N(C)C(=O)[C@H](CO)NC(=O)[C@H](Cc2ccc(O)cc2)NC(=O)[C@@H](NC(C)=O)CCCC(=O)NC[C@@H](C(=O)N(C)[C@@H](Cc2ccc(F)cc2)C(N)=O)N(C)C(=O)[C@H](C2CC2)NC1=O` [Example A17, (3S,6S,9S,12S,15S,18S,21S,24S,27S)-27-acetamido-15-(4-acetamidobutyl)-N-((S)-1-amino-3-(4-fluorophenyl)-1-oxopropan-2-yl)-6-cyclopropyl-12-((5-hydroxy-1H-indol-3-yl)methyl)-24-(4-hydroxybenzyl)-21-(hydroxymethyl)-N,4,16,19-tetramethyl-5,8,11,14,17,20,23,26,31-nonaoxo-9-pentyl-18-phenethyl-1,4,7,10,13,16,19,22,25-nonaazacyclohentriacontane-3-carboxamide] (Ac-[Aad]YS[NMehPhe][NMeK](Ac)[Trp(5-OH)][Ahp(2)][Gly(cPr)][NMeDap][NMePhe(4-F)]-NH2; lactam 1-9), the Kd in experiment [1] (setting [6]) and in experiment [4] (setting [8]) was > 6000 nM throughout. The IC50 in experiment [2] (read-out: huHER2 TR-FRET IC50) and in experiment [3] (setting [7]) was > 1000 nM each time.

Turning to `CC(=O)NCCCC[C@H]1C(=O)N[C@@H](Cc2c[nH]c3ccc(O)cc23)C(=O)N[C@@H](Cc2c[nH]c3ccccc23)C(=O)N[C@@H](C2CC2)C(=O)N(C)[C@H](C(=O)N(C)[C@@H](Cc2ccc(F)cc2)C(=O)N[C@@H](CCCCNC(=O)CN2CCN(CC(=O)O)CCN(CC(=O)O)CCN(CC(=O)O)CC2)C(N)=O)CNC(=O)CCC[C@H](NC(C)=O)C(=O)N[C@@H](Cc2ccc(O)cc2)C(=O)N[C@@H](CCCCNC(=O)N2CCN(CC(=O)O)CC2)C(=O)N(C)[C@@H](CCc2ccccc2)C(=O)N1C` [Example C7] (Ac-[Aad]YK([CO-Piperazinyl(4-CH2COOH)])[NMehPhe][NMeK](Ac)[Trp(5-OH)]W[Gly(cPr)][NMeDap][NMePhe(4-F)]K(DOTA)-NH2; lactam 1-9), the figures for the dissociation constant Kd in experiment [1] (setting [6]) and in experiment [4] (setting [8]) were 1150 nM and 799 nM, respectively. The IC50 is 236 nM in experiment [2] (TR-FRET competition with Cy5 labeled peptide probe, 0.1 nM human HER2, 24 h incubation, read-out: huHER2 TR-FRET IC50); 164 nM in experiment [2] (setting [9]); 422 nM in experiment [3] (setting [7]); 434 nM in experiment [3] (setting [10]).

For `CCCCCC[C@@H]1NC(=O)[C@H](Cc2c[nH]c3ccc(O)cc23)NC(=O)[C@H](CCCCNC(C)=O)N(C)C(=O)[C@H](CCc2ccccc2)N(C)C(=O)[C@H](CO)NC(=O)[C@H](Cc2ccc(O)cc2)NC(=O)[C@@H](NC(C)=O)CCCC(=O)NC[C@@H](C(=O)N(C)[C@@H](Cc2ccc(F)cc2)C(N)=O)N(C)C(=O)[C@H](C2CC2)NC1=O` [Example A18, (3S,6S,9S,12S,15S,18S,21S,24S,27S)-27-acetamido-15-(4-acetamidobutyl)-N-((S)-1-amino-3-(4-fluorophenyl)-1-oxopropan-2-yl)-6-cyclopropyl-9-hexyl-12-((5-hydroxy-1H-indol-3-yl)methyl)-24-(4-hydroxybenzyl)-21-(hydroxymethyl)-N,4,16,19-tetramethyl-5,8,11,14,17,20,23,26,31-nonaoxo-18-phenethyl-1,4,7,10,13,16,19,22,25-nonaazacyclohentriacontane-3-carboxamide] (Ac-[Aad]YS[NMehPhe][NMeK](Ac)[Trp(5-OH)][Aoc(2)][Gly(cPr)][NMeDap][NMePhe(4-F)]-NH2; lactam 1-9), the Kd in experiment [1] (setting [6]) and in experiment [4] (setting [8]) was > 6000 nM each time. Further, the IC50 in experiment [2] (read-out: huHER2 TR-FRET IC50) and in experiment [3] (setting [7]) was > 1000 nM each time.

With `CN1C(=O)[C@H](CO)NC(=O)[C@H](Cc2ccc(O)cc2)NC(=O)[C@@H](N)CCC(=O)NC[C@@H](C(=O)N(C)[C@@H](Cc2ccc(F)cc2)C(N)=O)N(C)C(=O)[C@H](C2CC2)NC(=O)[C@H](Cc2c[nH]c3ccccc23)NC(=O)[C@H](Cc2c[nH]c3ccc(O)cc23)NC(=O)[C@H](CO)N(C)C(=O)[C@@H]1CCc1ccccc1` [Example A35, (3S,6S,9S,12S,15S,18S,21S,24S,27S)-9-((1H-indol-3-yl)methyl)-27-amino-N—((S)-1-amino-3-(4-fluorophenyl)-1-oxopropan-2-yl)-6-cyclopropyl-12-((5-hydroxy-1H-indol-3-yl)methyl)-24-(4-hydroxybenzyl)-15,21-bis(hydroxymethyl)-N,4,16,19-tetramethyl-5,8,11,14,17,20,23,26,30-nonaoxo-18-phenethyl-1,4,7,10,13,16,19,22,25-nonaazacyclotriacontane-3-carboxamide TFA 5 salt], the values for the Kd in experiment [1] (setting [6]) and in experiment [4] (setting [8]) were 37 nM and 66 nM, respectively. The IC50 in experiment [2] (read-out: huHER2 TR-FRET IC50) worked out at 53 nM; in experiment [3] (setting [7]), 122 nM.

In the case of `CN1C(=O)[C@H](CO)NC(=O)[C@H](Cc2ccc(O)cc2)NC(=O)[C@@H](N)CSSC[C@@H](C(=O)N(C)[C@@H](Cc2ccc(F)cc2)C(N)=O)N(C)C(=O)[C@H](C2CC2)NC(=O)[C@H](Cc2c[nH]c3ccccc23)NC(=O)[C@H](Cc2c[nH]c3ccc(O)cc23)NC(=O)[C@H](CO)N(C)C(=O)[C@@H]1CCc1ccccc1` [Example A54, (4R,7S,10S,13S,16S,19S,22S,25S,28R)-10-((1H-indol-3-yl)methyl)-28-amino-N—((S)-1-amino-3-(4-fluorophenyl)-1-oxopropan-2-yl)-7-cyclopropyl-13-((5-hydroxy-1H-indol-3-yl)methyl)-25-(4-hydroxybenzyl)-16,22-bis(hydroxymethyl)-N,5,17,20-tetramethyl-6,9,12,15,18,21,24,27-octaoxo-19-phenethyl-1,2-dithia-5,8,11,14,17,20,23,26-octaazacyclononacosane-4-carboxamide TFA salt] (H-CYS[NMehPhe][NMeS][Trp(5-OH)]W[Gly(cPr)][NMeC][NMePhe(4-F)]-NH2; disulfide 1-9), the Kd in experiment [1] is 1710 nM; in experiment [4] (setting [8]), 5310 nM. Also, the concentration for half-maximal inhibition (IC50) in experiment [2] (setting [5]) and in experiment [3] (setting [7]) was > 1000 nM in each case.

For `CC(=O)NCCCC[C@H]1C(=O)N[C@@H](Cc2c[nH]c3ccc(O)cc23)C(=O)N[C@@H](Cc2c[nH]c3ccccc23)C(=O)N[C@@H]([C@H](C)O)C(=O)N(C)[C@H](C(=O)N(C)[C@@H](Cc2ccc(F)cc2)C(=O)N[C@@H](CCCCNC(=O)CN2CCN(CC(=O)O)CCN(CC(=O)O)CCN(CC(=O)O)CC2)C(N)=O)CNC(=O)CC[C@H](NC(C)=O)C(=O)N[C@@H](Cc2ccc(O)cc2)C(=O)N[C@@H](CO)C(=O)N(C)[C@@H](CCc2ccccc2)C(=O)N1C` [Example C25], the figures for the dissociation constant Kd in experiment [1] (setting [6]) and in experiment [4] (setting [8]) were 0.6 nM and 2 nM, respectively. The figures for the IC50 in experiment [2] (setting [9]), in experiment [3] (setting [7]) and in experiment [3] (setting [10]) were 0.9 nM, 6.1 nM and 3.7 nM, respectively.

As for `CC(=O)NCCCC[C@H]1C(=O)N[C@@H](Cc2c[nH]c3ccc(O)cc23)C(=O)N[C@H](Cc2c[nH]c3ccccc23)C(=O)N[C@@H](C2CC2)C(=O)N(C)[C@H](C(=O)N(C)[C@@H](Cc2ccc(F)cc2)C(=O)N[C@@H](CCCCNC(=O)CN2CCN(CC(=O)O)CCN(CC(=O)O)CCN(CC(=O)O)CC2)C(N)=O)CNC(=O)CCC[C@H](NC(C)=O)C(=O)N[C@@H](Cc2ccc(O)cc2)C(=O)N[C@@H](CO)C(=O)N(C)[C@@H](CCc2ccccc2)C(=O)N1C` [Example B9], the figures for the Kd in experiment [1] (setting [6]) and in experiment [4] (setting [8]) were 5110 nM and > 6000 nM, respectively. Further, the IC50 in experiment [2] (read-out: huHER2 TR-FRET IC50) and in experiment [3] (setting [7]) was > 1000 nM in each case.

For orientation: Kd means the free concentration of one partner at which half of the binding sites on the other are occupied at equilibrium, for simple one-to-one binding. What is called IC50 is the point on the concentration scale where inhibition reaches its midpoint.
